# Assay results from paper PMC9911797, “Novel TLR7/8 agonists promote activation of HIV-1 latent reservoirs and human T and NK cells” (Frontiers in Microbiology, 2023).
# What was measured:
# [1] = system: PBMCs from healthy donors; assay: Surface activation markers on immune cells of healthy donor PBMCs (flow cytometry); type: cell-based, human; conditions: 1 μM, 24 h
# Source text: TLR family is essential in connecting innate immunity with acquired immunity in fighting against infection. It was then studied whether the identified TLR7/8 agonists could activate cell populations within PBMC, thereby potentiating their effector functions. […] The representative diagram of the gating strategy for each immune cell is shown in Supplementary Figure S5. All tested TLR7/8 agonists activated CD69 and NKG2D expression on CD56^bright and CD56^dim NK cells (Figures 6A–D), as well as CD69 and CD25 expression on CD4+ and CD8+ T cells (Figures 6E–H).
# Then cells were collected and washed in FACS buffer (PBS + 2%FBS). Cells were incubated by fluorescence antibodies at 4°C for 30 min. For T cells, CD3-PE-Cy7 (Biolegend), CD4-PE (BD), CD8-FITC (Biolegend), CD25-BV421 (Biolegend), CD69-BV510 (Biolegend). For NK cells, CD16-PE (Biolegend), CD56-APC (Biolegend), CD69-BV510 (Biolegend), NKG2D-BV421 (Biolegend). For monocytes, CD14-PE-Cy7 (Invitrogen), CD40-APC-Cy7 (Biolegend) HLR-DR-BV510 (Biolegend). For dendritic cells, anti-human lineage cocktail-APC (Biolegend), CD11c-PE-Cy7 (Biolegend), CD80-BV510 (Biolegend), CD86-AF488 (Biolegend).
# [2] = system: PBMCs from HIV-1 well-suppressed patients; assay: Latent HIV-1 activation in PBMCs of well-suppressed patients (HIV-1 RNA copies in supernatant, RT-qPCR); type: cell-based, human
# Source text: To study the potential of novel TLR7/8 in activating latent HIV-1 reservoir, TLR7/8 dual agonists D018 and C142 and TLR8-specific agonist B-130a were mixed with PBMCs from six well-suppressed patients whose viral load in the plasma was less than 50 copies/ml, and CD4 counts were more than […] for more than 6 years.
# TLR7/8 agonists activated PBMCs from seven well-suppressed patients with the addition of anti-TNF-α monoclonal antibody or IgG1-control monoclonal antibody, respectively. D018, B-130a, and the positive control PMA + ION increased the levels of HIV-1 RNA copies in the supernatant and the concentration of TNF-α concomitantly.
# To measure the HIV viral load, viral RNA from supernatants was extracted by MagaBio Plus Viral DNA / RNA Purification Kit (BIOER). The reverse-transcription and analysis of RNA copies were performed using the HIV-1 Real-time PCR detection kit (BIOER).
# NF-κB p65 in U1 cells = assay: Nuclear phospho-p65-S536 in U1 cells (western blot); conditions: 1 μM, 30 min, 37°C
# Procedure: For measuring NF-kB p65 and phosphor-p65 S536, 5 × 10^6 U1 cells were stimulated by 1 μM TLR7/8 agonists D018 (7/8), B-130a (8), GS9620 (7), and DMSO (negative control) for 30 min. Nuclear proteins were extracted by NE-PER Nuclear and Cytoplasmic Extraction Reagents (Pierce) and measured the concentration using BCA protein measure kit (Thermo).
# Equal amounts of extracts were loaded on the 10% polyacrylamide gel SDS-PAGE. Then proteins were electro-transferred to nitrocellulose membranes 300 mA for 90 min and incubated with blocking buffer (5% nonfat dry milk and 0.1% Tween 20 in TBS) for 1 h at room temperature. NF-kB p65, phosphorylate p65-s529, and PCNA (as the control of nuclear protein) were separately detected by NF-κB p65 Mouse mAb (CST), Phospho-NF-κB p65 Ser536 Rabbit mAb (CST) and PCNA Rabbit mAb (CST) in blocking buffer overnight at 4°C. After washing 5 times in TBST (1 × TBS + 0.1% Tween), the membranes were incubated with anti-mouse IgG (H + L) HRP (Promega) and anti-rabbit IgG (H + L) HRP (Promega) for 1 h at room temperature. After washing 5 times in TBST, membranes were incubated with ECL detection reagents (Bio-red) and then developed in Bio-red imager.
# [3] = system: J-LAT cells co-cultured with MDDCs; assay: J-LAT and MDDC co-culture assay (GFP+ cells and TNF-α); conditions: 1 μM, 48 h
# [4] = system: U1 monocytic cell line (latent HIV-1); assay: HIV-1 p24 production in latently infected U1 cells (ELISA)
# hTLR7 = target: T1, hTLR7 (Homo sapiens, UniProt Q9NYK1); assay: HEK-Blue hTLR7 SEAP reporter assay; type: cell-based; conditions: HEK-Blue hTLR7 cells, SEAP in supernatant
# T1 construct: host or cells: HEK-Blue hTLR7 (HEK293-derived)
# T1 sequence (Q9NYK1 27-1049): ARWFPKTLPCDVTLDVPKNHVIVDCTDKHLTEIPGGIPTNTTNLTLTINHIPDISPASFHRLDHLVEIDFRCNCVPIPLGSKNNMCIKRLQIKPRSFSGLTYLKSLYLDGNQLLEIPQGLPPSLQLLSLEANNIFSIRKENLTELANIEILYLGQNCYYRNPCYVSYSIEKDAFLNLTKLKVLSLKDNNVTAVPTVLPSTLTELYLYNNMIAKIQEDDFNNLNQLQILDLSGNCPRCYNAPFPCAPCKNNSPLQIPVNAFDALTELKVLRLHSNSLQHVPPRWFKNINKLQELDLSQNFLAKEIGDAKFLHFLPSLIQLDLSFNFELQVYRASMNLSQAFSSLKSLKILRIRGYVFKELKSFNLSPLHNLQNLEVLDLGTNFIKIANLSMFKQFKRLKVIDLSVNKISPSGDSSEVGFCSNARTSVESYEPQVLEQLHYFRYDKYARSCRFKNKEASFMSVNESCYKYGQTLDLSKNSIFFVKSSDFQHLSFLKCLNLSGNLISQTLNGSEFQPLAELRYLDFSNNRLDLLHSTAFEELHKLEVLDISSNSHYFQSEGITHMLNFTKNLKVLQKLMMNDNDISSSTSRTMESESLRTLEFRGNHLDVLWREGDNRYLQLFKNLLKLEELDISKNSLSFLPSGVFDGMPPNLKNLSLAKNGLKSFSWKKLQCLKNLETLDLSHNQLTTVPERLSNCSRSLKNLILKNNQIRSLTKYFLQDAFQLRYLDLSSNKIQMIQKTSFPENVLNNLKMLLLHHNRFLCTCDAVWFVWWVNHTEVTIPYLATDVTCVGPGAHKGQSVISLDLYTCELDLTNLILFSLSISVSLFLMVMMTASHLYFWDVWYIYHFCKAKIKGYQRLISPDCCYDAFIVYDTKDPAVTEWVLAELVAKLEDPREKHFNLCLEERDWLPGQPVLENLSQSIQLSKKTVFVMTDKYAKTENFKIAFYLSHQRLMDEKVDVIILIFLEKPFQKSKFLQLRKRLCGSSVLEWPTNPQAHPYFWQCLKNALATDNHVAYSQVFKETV
# Procedure: Starting with the lead compound, 76 pyrido [3,2-d] pyrimidine derivatives were synthesized and optimized through structural modification from the deep hydrophobic region to the solvent-exposed region. Seventy-six compounds were evaluated for their in vitro activity using HEK-Blue hTLR7 or hTLR8 reporter cells, stably expressing the human TLR7 or TLR8 and an NF-κB/AP1-inducible SEAP (secreted embryonic alkaline phosphatase reporter gene).
# Add 20 μl various concentrations of TLR agonists (10 dilutions) and in a 96-well plate. Then HEK-Blue hTLR7 and hTLR8 cells were suspended to 4 × 10^5 cells/ml in HEK-Blue Detection (InvivoGen) medium and added 180 μl per well. The plates were incubated at 37°C in 5% CO2 for 12 ~ 16 h. Stimulation with a hTLR7or hTLR8 ligand activates NF-κB to induce the production of secreted embryonic alkaline phosphatase (SEAP) in the culture supernatant. SEAP could be measured at OD630nm on an ELISA plate reader.
smiles,measurement,setting,value
CCCCNc1nc(N)nc2ccc(Cc3ccc(CN(C)C)cc3)nc12 [D018],CD69/NKG2D on NK cells and CD69/CD25 on CD4+ and CD8+ T cells,[1],most potent
same,HIV-1 RNA copies in the supernatant and TNF-α concentration,"[2]; PBMCs from seven well-suppressed patients, IgG1-control antibody vs anti-TNF-α",increased
same,HIV-1 RNA copies in the supernatant,"[2]; patient PBMCs (n = 6), 96 h at 37°C",most potent
same,nuclear phos-p65-S536,NF-κB p65 in U1 cells,significant increase
same,GFP+ J-LAT cells and soluble TNF-α in MDDC co-culture,[3],marked increase
same,p24 production after TLR8 or MyD88 knockdown,"[4]; 1 μM, TLR8- or MyD88-shRNA U1 vs sham-knockdown",essentially abolished the p24 production
same,EC50,"[4]; Homo sapiens, read-out: EC50 of p24 production in U1",70 nM
same,EC50,hTLR7,40.2 nM
